In EPA's ToxValDB 9.5 (doi:10.2903/j.efsa.2010.1931):
In brackets after ≈: the same amount, converted by molar mass.

Assays:
Typhlodromus pyri = experiment: LR50; higher = less toxic; details: acute; duration: 7 days; mortality
Daphnia magna = details: chronic/long-term; duration: 21 days; reproduction
Oncorhynchus mykiss = details: mortality
Oryctolagus sp. = details: chronic; body weight
Colinus virginianus = details: for LD50: acute, oral, mortality
Anas platyrhynchos = details: acute; oral; unspecified; mortality
Apis mellifera = details: acute; duration: 48 hours; oral; unspecified; mortality

**Q.** `COCCOc1cccc2c1c(=O)c(C(=O)O)nn2-c1ccc(Cl)cc1` was tested. Which LR50 (Typhlodromus pyri) did it give?
**A.** 1460 g/ha

**Q.** What about the NOEC (Daphnia magna) of the same compound?
**A.** 7.03 mg/L

**Q.** What about the LC50 (Tagia sp.; acute, duration: 14 days, mortality) of the same compound?
**A.** 20 mg/kg

**Q.** And the NOEC (Tagia sp.; chronic/long-term, reproduction)?
**A.** 20 mg/kg

**Q.** What about the LC50 (Oncorhynchus mykiss; acute, duration: 96 hours) of the same compound?
**A.** 570 µg/mL (≈ 1520 µM)

**Q.** What about the NOEC (Oncorhynchus mykiss; chronic/long-term, duration: 28 days) of the same compound?
**A.** 100 mg/L

**Q.** And the NOEL (Oryctolagus sp.)?
**A.** 125 mg/kg-day

**Q.** And the LD50 (Rattus norvegicus; acute, oral, mortality)?
**A.** > 5000 mg/kg-day

**Q.** What about the NOAEL (Rattus norvegicus; chronic, duration: 2 years, mortality) of the same compound?
**A.** 9.1 mg/kg-day

**Q.** And the NOAEL (Rattus norvegicus; subchronic, duration: 90 days, oral, histopathology: nonneoplastic)?
**A.** 16.5 mg/kg-day

**Q.** And the LD50 (Colinus virginianus; diet)?
**A.** > 642 mg/kg-day

**Q.** What about the LD50 (Colinus virginianus) of the same compound?
**A.** > 1440 mg/kg-day

**Q.** And the NOEL (Colinus virginianus; reproduction developmental)?
**A.** 119 mg/kg-day

**Q.** What about the LD50 (Anas platyrhynchos) of the same compound?
**A.** > 1440 mg/kg-day

**Q.** And the LD50 (Apis mellifera)?
**A.** > 100 µg/piece
